Data as given in patent US11753445B2, “Therapeutic peptides” (COHBAR, INC., priority 2016, dated 2023).
Values belong to the compound of their own block, whether it stands above or below them. Peptide text beside a SMILES is read from it.

Experiments:
3T3-L1 Adipocytes [1] = assay: Free fatty acid levels in cultured mouse 3T3-L1 adipocytes, isoproterenol stimulated (Example 17); assay type: cell-based; conditions: Peptide Concentration 25 μM; isoproterenol 1 nM
Method: Mouse 3T3-L1 cells were seeded at a density between 1,000-20,000 cells per well on 96-well, 48-well, or 24-well plates in Pre-adipocyte Medium (Zen-Bio, Durham, N.C.) and grown to confluence at 37° C. in a humidified atmosphere of 5% CO2/95% air. Two days after confluence, cells were placed in Adipocyte Differentiation Medium (Zen-Bio, Durham, N.C.) and cultured for three additional days at 37° C. in a humidified atmosphere of 5% CO2/95% air. The culture media was then replaced with Adipocyte Maintenance Medium (Zen-Bio) and the cells were maintained for an additional 9-14 days at 37° C. in a humidified atmosphere of 5% CO2/95% air with partial medium replacement every other day. Following 12-17 days of differentiation, test peptides were added at a final concentration of 25-50 μM and incubated for 18-20 hours in Adipocyte Maintenance Medium at 37° C. in a humidified atmosphere of 5% CO2/95%. After the media incubation, media was removed and exchanged with Assay Buffer (Zen-Bio) containing isoproterenol (1 nM) (added to all samples except untreated controls) and the test peptides. Cells were incubated for a further 3 hours at 37° C. in a humidified atmosphere of 5% CO2/95%. Free fatty acid concentrations in the media were determined using a Free Fatty Acid Assay Kit (Zen-Bio) according to the manufacturer's instructions using a plate reader (540 nm).
Absorbance values were corrected for untreated background and expressed relative to isoproterenol treated cells. Treatment with isoproterenol (1 nM) alone was used as the free fatty acid level stimulatory control. The relative standard deviation of the isoproterenol control was <10%. […] Free fatty acid levels for insulin (100 nM) treatment were <5% of the isoproterenol control value.

Human Primary Adipocytes [2] = assay: Free fatty acid levels in cultured human primary adipocytes, isoproterenol stimulated (Example 4); assay type: cell-based; conditions: test peptides 25 μM; isoproterenol 1 nM
Method: Human primary adipocytes were seeded at 5,000-100,000 cells per well on 96-well, 48-well, or 24-well plates in Pre-adipocyte Medium (Zen-Bio, Durham, N.C.) and grown to confluence at 37° C. in a humidified atmosphere of 5% CO2/95% air. Two days after confluence, cells were placed in Adipocyte Differentiation Medium (Zen-Bio, Durham, N.C.) and cultured for three additional days at 37° C. in a humidified atmosphere of 5% CO2/95% air. The culture media was then replaced with Adipocyte Maintenance Medium (Zen-Bio) and the cells were maintained for an additional 11-21 days at 37° C. in a humidified atmosphere of 5% CO2/95% air with partial medium replacement every other day. Following 14-24 days of differentiation, test peptides were added at a final concentration of 25 μM and incubated for 18-20 hours in Adipocyte Maintenance Medium at 37° C. in a humidified atmosphere of 5% CO2/95%. After 18-20 hours, the media was exchanged with fresh Adipocyte Maintenance Medium containing test peptides and incubated for 1 h at 37° C. in a humidified atmosphere of 5% CO2/95%. After 1 h media was exchanged with Assay Buffer (Zen-Bio) containing isoproterenol (1 nM) (added to all samples except untreated controls) and test peptides. Cells were incubated for a further 3 hours at 37° C. in a humidified atmosphere of 5% CO2/95%. Free fatty acid concentrations in the media were determined using a Free Fatty Acid Assay Kit (Zen-Bio) according to the manufacturer's instructions using a plate reader (540 nm). Absorbance values were corrected for untreated background and expressed relative to isoproterenol treated cells. Treatment with isoproterenol (1 nM) alone was used as the free fatty acid level stimulatory control. The relative standard deviation of the isoproterenol control was <14%. […] Free fatty acid levels for insulin (100 nM) treatment were <5% of the isoproterenol control value.

Human Primary Adipocytes [3] = assay: Free fatty acid levels in cultured human primary adipocytes, forskolin stimulated (Example 5); assay type: cell-based; conditions: test peptides 25 μM; forskolin 1 μM
Method: Human primary adipocytes were seeded at 5,000-100,000 cells per well on 96-well, 48-well, or 24-well plate in Pre-adipocyte Medium (Zen-Bio, Durham, N.C.) and grown to confluence at 37° C. in a humidified atmosphere of 5% CO2/95% air. Two days after confluence, cells were placed in Adipocyte Differentiation Medium (Zen-Bio, Durham, N.C.) and cultured for three additional days at 37° C. in a humidified atmosphere of 5% CO2/95% air. The culture media was then replaced with Adipocyte Maintenance Medium (Zen-Bio) and the cells were maintained for an additional 11-21 days at 37° C. in a humidified atmosphere of 5% CO2/95% air with partial medium replacement every other day. Following 14-24 days of differentiation, test peptides were added at a final concentration of 25 μM and incubated for 18-20 hours in Adipocyte Maintenance Medium at 37° C. in a humidified atmosphere of 5% CO2/95%. After 18-20 hours, the media was exchanged with fresh Adipocyte Maintenance Medium containing test peptides and incubated for 1 h at 37° C. in a humidified atmosphere of 5% CO2/95%. After 1 h media was exchanged with Assay Buffer (Zen-Bio) containing forskolin (1 μM) (added to all samples except untreated controls) and test peptides. Cells were incubated for a further 3 hours at 37° C. in a humidified atmosphere of 5% CO2/95%. Free fatty acid concentrations in the media were determined using a Free Fatty Acid Assay Kit (Zen-Bio) according to the manufacturer's instructions using a plate reader (540 nm). Absorbance values were corrected for untreated background and expressed relative to forskolin treated cells. Treatment with forskolin (1 μM) alone was used as the free fatty acid level stimulatory control. The relative standard deviation of the forskolin control was <20%. […] Free fatty acid levels for insulin (100 nM) treatment were <8% of the forskolin control value.

3T3-L1 Adipocytes [4] = assay: Free fatty acid levels in cultured mouse 3T3-L1 adipocytes, isoproterenol stimulated (Example 2); assay type: cell-based; conditions: test peptides 25 μM; isoproterenol 1 nM
In short: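 Release of free fatty acids, read at 540 nm, was stimulated with 1 nM isoproterenol for 3 h in mouse 3T3-L1 adipocytes (12–17 days of differentiation). Cells were pre-exposed to 25 μM peptide for 18–20 h plus 1 h, with peptide kept in during stimulation. Values are background-subtracted and normalised to isoproterenol alone.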

[5] = Stability in mouse plasma, peptides 100 uM (Example 14); assay type: in vitro ADME; conditions: mouse plasma 37° C., peptide 100 uM; for remaining at 0.25 h, 100 uM / remaining at 0.5 h, 100 uM / remaining at 1 h, 100 uM / remaining at 2 h, 100 uM / remaining at 3 h, 100 uM: pooled mouse plasma; for remaining at 0.25 h, 100 uM: 15 min, read-out: % Remaining at Each Time Point: 15 min; for remaining at 0.5 h, 100 uM: 30 min, read-out: % Remaining at Each Time Point: 30 min; for remaining at 1 h, 100 uM: 60 min, read-out: % Remaining at Each Time Point: 60 min; for remaining at 2 h, 100 uM: 120 min, read-out: % Remaining at Each Time Point: 120 min; for remaining at 3 h, 100 uM: 180 min, read-out: % Remaining at Each Time Point: 180 min
Method: Peptides (100 uM) were incubated in pooled mouse plasma at 37° C. and samples were removed and immediately analyzed for the concentration of intact peptide by LC/MS/MS over the course of 3 hours. The percent of peptide remaining in plasma at each time point was calculated relative to the initial peak area (Table 12).

[6] = tested on: Diet Induced Obese (DIO) mice; assay: Body weight, blood glucose and fat mass in Diet Induced Obese mice, 10 days (Example 6); assay type: in vivo, Male C57BL/6 mice; conditions: male DIO mice; 10 days twice daily intraperitoneal 15 mg/kg; N = 8; mean
Method: Animals were randomized to treatment groups based on blood glucose levels and body weight. The peptides of the invention were administered to two groups of male DIG mice once or twice daily by subcutaneous or intraperitoneal injection at a dose of 15 mg/kg/dose for 10 days (N=8 animals per treatment group). An additional group of male DIG mice (n=8) received vehicle (water or saline) alone. Body weight, blood glucose levels and food intake were monitored. Body mass distribution (fat vs lean) was determined by quantitative whole body NMR prior to dosing and at the end of dosing.

Compound: CC[C@H](C)[C@H](NC(=O)[C@H](Cc1ccc(O)cc1)NC(=O)[C@H](CC(N)=O)NC(=O)[C@H](CCSC)NC(=O)[C@H](CCC(=O)O)NC(=O)[C@H](CCC(N)=O)NC(=O)[C@H](Cc1c[nH]c2ccccc12)NC(=O)[C@@H](N)CCCNC(=N)N)C(=O)N[C@@H](Cc1ccccc1)C(=O)N[C@@H](Cc1ccc(O)cc1)C(=O)N1CCC[C@H]1C(=O)N[C@@H](CCCNC(=N)N)C(=O)N[C@H](C)C(=O)O [compound 355] (HELM PEPTIDE1{R.W.Q.E.M.N.Y.I.F.Y.P.R.[dA]}$$$$V2.0)
- Free Fatty Acid Levels in 3T3-L1 Adipocytes Expressed as a Percent of Isoproterenol Control: Percent of Control Value (3T3-L1 Adipocytes [1]): 97.8%

Compound: CC[C@H](C)[C@H](NC(=O)[C@H](Cc1ccc(O)cc1)NC(=O)[C@H](CC(N)=O)NC(=O)[C@H](CCSC)NC(=O)[C@H](CCC(=O)O)NC(=O)[C@H](CCC(N)=O)NC(=O)[C@H](Cc1c[nH]c2ccccc12)NC(=O)[C@@H](N)CCCNC(=N)N)C(=O)N[C@@H](Cc1ccccc1)C(=O)N[C@@H](Cc1ccc(O)cc1)C(=O)N1CCC[C@H]1C(=O)N[C@@H](CCCNC(=N)N)C(=O)N[C@@H](CCCNC(=N)N)C(=O)N[C@H](C)C(=O)O [compound 356] (HELM PEPTIDE1{R.W.Q.E.M.N.Y.I.F.Y.P.R.R.[dA]}$$$$V2.0)
- Free Fatty Acid Levels in 3T3-L1 Adipocytes Expressed as a Percent of Isoproterenol Control: Percent of Control Value (3T3-L1 Adipocytes [1]): 100.6%

Compound: Ac-YIFYPRKLR-NH2 [compound 58]
- Free Fatty Acid Levels in Human Primary Adipocytes Expressed as a Percent of Isoproterenol Control: Percent of Control Value (Human Primary Adipocytes [2]): 164%
- Free Fatty Acid Levels in Human Primary Adipocytes Expressed as a Percent of Forskolin Control: Percent of Control Value (Human Primary Adipocytes [3]): 134%
- Free Fatty Acid Levels in 3T3-L1 Adipocytes Expressed as a Percent of Isoproterenol Control: Percent of Control Value (3T3-L1 Adipocytes [4]): 97.3%

Compound: H-EMNYIFYP-OH [compound 362]
- Free Fatty Acid Levels in 3T3-L1 Adipocytes Expressed as a Percent of Isoproterenol Control: Percent of Control Value (3T3-L1 Adipocytes [1]): 92.5%

Compound: H-IFYPR-OH [compound 360]
- Free Fatty Acid Levels in 3T3-L1 Adipocytes Expressed as a Percent of Isoproterenol Control: Percent of Control Value (3T3-L1 Adipocytes [1]): 94.6%

- % Remaining at Each Time Point: 0 min [5]: 100%
- remaining at 0.25 h, 100 uM [5]: 13.2%
- remaining at 0.5 h, 100 uM [5]: 11.2%
- remaining at 1 h, 100 uM [5]: 10.1%
- remaining at 2 h, 100 uM [5]: 11.7%
- remaining at 3 h, 100 uM [5]: 9.81%
Compound: H-MRAQEMGYIFYPRKLR-OH [compound 8]
- Free Fatty Acid Levels in Human Primary Adipocytes Expressed as a Percent of Isoproterenol Control: Percent of Control Value (Human Primary Adipocytes [2]): 22.2%
- Free Fatty Acid Levels in Human Primary Adipocytes Expressed as a Percent of Forskolin Control: Percent of Control Value (Human Primary Adipocytes [3]): 107%
- Difference from Vehicle Control: Decrease from Baseline in Blood Glucose [6]: -20.0 mg/dL
- Difference from Vehicle Control: Decrease from Baseline in Body Weight (%) [6]: −0.24%
- Difference from Vehicle Control: Decrease from Baseline in Fat Mass [6]: -0.20 g

- % Remaining at Each Time Point: 0 min [5]: 100%
- remaining at 0.25 h, 100 uM [5]: 33.1%
- remaining at 0.5 h, 100 uM [5]: 37.7%
- remaining at 1 h, 100 uM [5]: 19.3%
- remaining at 2 h, 100 uM [5]: 5.96%
- remaining at 3 h, 100 uM [5]: 2.11%
Compound: H-MRWQEMGYIFYPRK(Ac)LR-OH [compound 69]
- Free Fatty Acid Levels in Human Primary Adipocytes Expressed as a Percent of Isoproterenol Control: Percent of Control Value (Human Primary Adipocytes [2]): 53.0%
- Free Fatty Acid Levels in Human Primary Adipocytes Expressed as a Percent of Forskolin Control: Percent of Control Value (Human Primary Adipocytes [3]): 119%
- Free Fatty Acid Levels in 3T3-L1 Adipocytes Expressed as a Percent of Isoproterenol Control: Percent of Control Value (3T3-L1 Adipocytes [4]): 61.3%
